Measured values reported in patent publication US20200278355A1, “CONJUGATED PROTEINS AND USES THEREOF” (THE SCRIPPS RESEARCH INSTITUTE, priority 2017, published 2020).

Target: T1, HA-NR0B1-C274V binding to FLAG-SNW1 (Homo sapiens, UniProt P51843, C274V)
T1 construct: expressed in transfected cells; host or cells: HEK293T (pRK5-based plasmids)
Assay: Modified in vitro binding assay: HA-NR0B1-C274V from compound-treated HEK293T cells binding to FLAG-SNW1
Format: cell-based
Conditions: HEK293T cells expressing HA-NR0B1-C274V treated with compound, lysate binding to FLAG-SNW1
Protocol: FIG. 5A-FIG. 5G show covalent ligand targeting C274 disrupts NR0B1 protein complexes. […] Percentage of NR0B1 bound to SNW1 was normalized to vehicle (DMSO). A hit compound BPK-26 is marked in red. […] HEK293T cells expressing the indicated proteins were treated with BPK-29 or vehicle (3 h) prior to treatment with BPK-29yne (30 min). Immunoprecipiated proteins were analyzed by in-gel fluorescence-scanning and immunoblotting. […] HEK293T cells expressing HA-NR0B1-WT or HA-NR0B1-C274V proteins were treated with DMSO or BPK-29, after which lysates were generated and evaluated for binding to FLAG-SNW1, as shown in (B).
FIG. 11A-FIG. 11F illustrate a covalent ligand targeting Cys274 disrupts NR0B1 protein complexes. […] See also FIG. 5C. […] Top: Structures of screening hit BPK-28 and synthesized derivatives. […] FLAG-immunoprecipitates were prepared from each lysate and subjected to proteolytic digestion, whereupon tryptic peptides harboring C274 were analyzed by LC-MS/MS. […] Immunoprecipitates were analyzed by in-gel fluorescence-scanning to assess BPK-29yne labeling or by immunoblot for FLAG-NR0B1. […] In a modified in vitro binding assay shown in FIG. 5B, HEK293T cells expressing HA-NR0B1-WT or an HA-NR0B1-C274V mutant were treated with DMSO or BPK-26 (20 μM, 3 h), after which lysates were and interaction with FLAG-SNW1 assessed. […]

T1 sequence (P51843 whole entry C274V): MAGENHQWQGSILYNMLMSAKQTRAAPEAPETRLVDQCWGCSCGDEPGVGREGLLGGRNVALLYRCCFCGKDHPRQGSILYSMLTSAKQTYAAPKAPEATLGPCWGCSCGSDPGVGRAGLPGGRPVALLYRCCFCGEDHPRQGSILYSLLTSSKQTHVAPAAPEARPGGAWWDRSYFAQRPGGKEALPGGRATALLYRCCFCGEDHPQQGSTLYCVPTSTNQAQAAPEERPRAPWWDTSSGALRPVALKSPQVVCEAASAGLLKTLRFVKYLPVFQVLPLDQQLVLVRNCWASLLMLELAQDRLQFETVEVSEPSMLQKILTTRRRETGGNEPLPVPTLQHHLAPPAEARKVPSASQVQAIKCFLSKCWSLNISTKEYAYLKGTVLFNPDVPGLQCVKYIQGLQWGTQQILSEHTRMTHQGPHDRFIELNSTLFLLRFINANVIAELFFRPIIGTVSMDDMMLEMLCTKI

Structure (SMILES) | sensitivity of the C274V-NR0B1 interaction with SNW1 to ligand
O=C(CCl)N(Cc1cccc(Cl)c1F)c1ccc(Cl)nc1 [BPK-26, 2-chloro-N-(3-chloro-2-fluorobenzyl)-N-(6-chloropyridin-3-yl)acetamide] | not sensitive
O=C(c1ccc(N2CCOCC2)cc1)N1CCCC(N(Cc2ccccc2)C(=O)CCl)CC1 (centres unmarked) [BPK-29, N-benzyl-2-chloro-N-(1-(4-morpholinobenzoyl)azepan-4-yl)acetamide] | not sensitive
